We go through five compounds from paper PMC3070735, “Uremic Toxins Inhibit Transport by Breast Cancer Resistance Protein and Multidrug Resistance Protein 4 at Clinically Relevant Concentrations” (PLoS ONE, 2011).

For orientation: Cmax means the peak of the concentration-time curve.

Structures can show the parent of a compound that is named as a salt.

Series [1] in a line: Plasma concentrations of uremic toxins in CRF and ESRD patients and healthy controls (HPLC, LC/MS-MS). It is filed as in vivo, human. The protocol:
Blood samples were obtained from 4 patients with chronic renal failure (CRF) during regular check-up, 6 patients with end-stage renal disease (ESRD) before hemodialysis and 4 healthy controls. None of the subjects had been fasting at the time of blood sampling. Blood was collected in an EDTA Vacutainer and was immediately centrifuged at 3,000 x g for 10 min. Subsequently, plasma was collected and stored at −20°C. Before chromatography an aliquot of plasma was diluted in H2O (1∶1) and deproteinized with perchloric acid (final concentration 3.3% (v/v)). Next, samples were centrifuged at 12,000 x g for 3 min and 50 µl of the supernatant was injected into the HPLC-system (Spectra-Physics Analytical, Spectrasystem SCM400). […] Separation was performed at a flow rate of 1 ml/min with eluent A (95% (v/v) H2O, 5% (v/v) acetonitril and 0.1% (v/v) heptafluorobutyric acid) and eluent B (50% (v/v) H2O, 50% (v/v) acetonitrile and 0.1% (v/v) heptafluorobutyric acid) under the following gradient conditions: 0–1 min, 100% eluent A; 1–15 min, 100–25% eluent A; 15–17 min, 25% eluent A; 17–18 min, […]; 18–23 min, 100% eluent A. The compounds were detected at a wavelength of 230 nm. For the detection of phenylacetic acid, chromatography was performed on a C18 HPLC column (Polaris 3 C18-A 150×4.6 mm; Varian, Middelburg, the Netherlands) with eluent A (97% (v/v) 50 mM sodium phosphate buffer [pH 6.5] and 3% (v/v) methanol) and eluent B (50% (v/v) H2O, 49% (v/v) acetonitrile and 1% (v/v) tetrahydrofuran) using the following gradient: 0–1 min, 100% eluent A; 1–15 min, 100–90% eluent A; 15–18 min, 10–100% eluent B; 18–22 min, 100% eluent B; 22–25 min, 0–100% eluent A; 25–30 min, 100% eluent A. The flow rate was 1 ml/min and phenylacetic acid was measured at a wavelength of 215 nm. Standards of the compounds were also run in order to quantify the amount of toxins found in the samples. Acquired data were processed with PC1000 software (Spectrasystem).
To determine the levels of kynurenic acid, blood was collected from CRF patients and processed as described above. Subsequently, 10 µl of the clear supernatant was injected into the LC/MS-MS system that consisted of an Accela HPLC system (Thermo scientific, Breda, the Netherlands) equipped with a C18 HPLC column (VisionHT C18 B 100×2 mm, 1.5 µm; Grace). Separation was performed at a flow rate of 150 µl/min with eluent A (5 mM ammonium formate+0.01% (v/v) trifluoroacetic acid) and eluent B (50% acetonitrile) under the following gradient conditions: 0–10 min, 98–50% eluent A; 10–15 min, 50% eluent A; 15–16 min, 50–98% eluent A; 16–21 min, 98% eluent A. The fractions eluted were directly passed through a TSQ Vantage tandem mass spectrometer (Thermo scientific) equipped with an electro-spray ionization source operating in the positive ion mode. The ion spray voltage was 4 kV, source temperature was 350°C and collision gas pressure was 1.5 bar. Kynurinic acid and the internal standard 1-methyl-tryptophan were quantified by selected reaction monitoring (SRM). […] Acquired data were processed with Thermo Xcaliber software (Thermo scientific).

Series [2] in a line: Uremic plasma concentrations (Cu, Cmax) in CKD patients from the EUTox database and literature. Type of series: in vivo, human. To be noted: calculated as Cmax = Cu + 2 SD; read-out: Hypothetical Cmax.
Description: The calculated Ki and IC20 values were compared with the mean plasma concentrations measured in ESRD patients during this study (Cm), the highest mean/median (Cu) and the highest maximal plasma concentrations (Cmax) measured in the literature in patients with CKD are also shown. The IC20 value was used since we believe that a 20% decrease in transport can already have a clinical impact. The Cu and Cmax values were obtained from the online database of the European Uremic Toxin (EUTox) Work Group (www.uremic-toxins.org; [19]), unless stated otherwise.
Where [3] appears, read: CRF patients (n = 4), total plasma.
Setting [4] is: ESRD patients (n = 6), total plasma.
Where [5] appears, read: healthy controls (n = 4), total plasma.

With `O=S(=O)(O)Oc1c[nH]c2ccccc12` [indoxyl sulfate], the Mean plasma concentration in series [1] (setting [3]) is recorded as 65 µM; in series [1] (setting [5]), 13 µM. For the same compound, in series [1] (setting [4]), the “Cm, mean plasma concentration determined in this study” value (“Cm, mean plasma concentration” for short) is reported as 129 µM.

With `O=C(O)Cc1ccccc1` [phenylacetic acid], the results for the Maximum plasma concentration in series [1] (CRF patients) and in series [1] (ESRD patients) were 9 µM and 83 µM, respectively. Also, the Mean plasma concentration in series [1] (setting [3]) was 4 µM; in series [1] (setting [5]), 5 µM. In addition, in series [1] (setting [4]), the “Cm, mean plasma concentration” value was 18 µM. Moreover, the Cmax in series [2] is 7700 µM.

`O=C(O)CNC(=O)c1ccccc1` [hippuric acid]: the “Cm, mean plasma concentration” value in series [1] (human, in vivo) amounted to 160 µM.

Consider `O=C(O)c1cc(=O)c2ccccc2[nH]1` [kynurenic acid], for which, in series [1] (human, in vivo), the “Cm, mean plasma concentration” value is reported as 1 µM.

Regarding `O=C(O)Cc1c[nH]c2ccccc12` [indole-3-acetic acid], the “Cm, mean plasma concentration” value in series [1] (human, in vivo) was determined as 4 µM.
